The species entered for this assay is Homo sapiens. Kind of assay: Binding affinity to RBC membrane receptor in human RBCs assessed as specific binding activity measured as ratio of specifically bound peptide/added peptide by gamma counter.

In the case of `CC(C)[C@H](NC(=O)[C@H](CC(=O)O)NC(=O)[C@H](CC(=O)O)NC(=O)[C@H](CC(=O)O)NC(=O)[C@H](CO)NC(=O)[C@H](CCC(=O)O)NC(=O)[C@H](CC(N)=O)NC(=O)[C@H](CC(=O)O)NC(=O)[C@H](CCC(N)=O)NC(=O)[C@H](CC(N)=O)NC(=O)[C@H](CCCCN)NC(=O)[C@H](CC(N)=O)NC(=O)[C@H](CCC(=O)O)NC(=O)[C@@H](N)CC(=O)O)C(=O)N[C@@H](CC(N)=O)C(=O)N[C@@H](CC(N)=O)C(=O)N[C@@H](CC(N)=O)C(=O)N[C@@H](CC(N)=O)C(=O)N[C@@H](CC(N)=O)C(=O)N[C@@H](CC(N)=O)C(=O)N[C@@H](Cc1ccc(O)cc1)C(=O)N[C@@H](CC(N)=O)C(=O)N[C@@H](CC(N)=O)C(=O)N[C@@H](CC(=O)O)C(=O)N[C@@H](CC(=O)O)C(=O)O`, the Activity was over 2%. Turning to `CC(C)[C@H](NC(=O)[C@H](Cc1cnc[nH]1)NC(=O)[C@@H](NC(=O)[C@H](CCCCN)NC(=O)[C@H](CCC(=O)O)NC(=O)[C@@H](NC(=O)[C@H](CC(N)=O)NC(=O)[C@H](CC(N)=O)NC(=O)[C@H](CCCNC(=N)N)NC(=O)[C@H](Cc1ccccc1)NC(=O)[C@H](C)NC(=O)[C@H](Cc1cnc[nH]1)NC(=O)[C@@H](NC(=O)[C@@H](NC(=O)[C@H](CO)NC(=O)[C@H](CCC(=O)O)NC(=O)[C@H](CC(N)=O)NC(=O)[C@@H](N)CO)C(C)C)[C@@H](C)O)[C@@H](C)O)[C@@H](C)O)C(=O)N[C@@H](Cc1cnc[nH]1)C(=O)N[C@@H](CCCCN)C(=O)N[C@@H](Cc1ccc(O)cc1)C(=O)O`, the Activity is over 2%. As for `CC[C@H](C)[C@H](NC(=O)[C@@H](NC(=O)[C@H](CC(=O)O)NC(=O)[C@H](CC(N)=O)NC(=O)[C@H](Cc1cnc[nH]1)NC(=O)[C@@H](NC(=O)[C@H](Cc1ccc(O)cc1)NC(=O)[C@H](CS)NC(=O)[C@@H](N)CCCNC(=N)N)C(C)C)C(C)C)C(=O)N[C@@H](CCCCN)C(=O)N[C@@H](Cc1ccccc1)C(=O)NCC(=O)N[C@@H](CCC(=O)O)C(=O)N[C@@H](CCC(=O)O)C(=O)N[C@@H](CC(N)=O)C(=O)N[C@@H](CO)C(=O)N[C@@H](CC(C)C)C(=O)N[C@@H](CCCCN)C(=O)N[C@@H](CS)C(=O)N[C@@H](CO)C(=O)O`, the Activity was over 2%. For `CC[C@H](C)[C@H](NC(=O)[C@@H](NC(=O)[C@H](Cc1ccc(O)cc1)NC(=O)[C@H](CCC(=O)O)NC(=O)[C@H](CCCCN)NC(=O)[C@H](CCC(=O)O)NC(=O)[C@H](Cc1ccc(O)cc1)NC(=O)[C@H](CO)NC(=O)[C@H](Cc1ccccc1)NC(=O)[C@H](Cc1ccc(O)cc1)NC(=O)[C@H](CO)NC(=O)[C@@H](NC(=O)[C@H](CCSC)NC(=O)[C@H](Cc1ccc(O)cc1)NC(=O)[C@@H](NC(=O)CNC(=O)[C@H](CCCCN)NC(=O)[C@@H]1CCCN1C(=O)[C@@H](N)Cc1ccccc1)[C@@H](C)O)[C@@H](C)O)C(C)C)C(=O)N[C@@H](CO)C(=O)O`, the Activity was over 2%. Regarding `CC[C@H](C)[C@H](NC(=O)[C@@H]1CCCN1C(=O)[C@H](Cc1ccccc1)NC(=O)[C@H](Cc1cnc[nH]1)NC(=O)[C@H](Cc1ccccc1)NC(=O)[C@H](CCC(N)=O)NC(=O)[C@@H](NC(=O)[C@H](CCC(=O)O)NC(=O)[C@@H](NC(=O)[C@H](Cc1ccc(O)cc1)NC(=O)[C@H](CC(=O)O)NC(=O)[C@H](CCC(=O)O)NC(=O)[C@@H](N)CC(C)C)C(C)C)C(C)C)C(=O)N[C@@H](Cc1ccc(O)cc1)C(=O)N[C@@H](Cc1ccc(O)cc1)C(=O)N[C@H](C(=O)N[C@@H](CCCCN)C(=O)N[C@@H](Cc1ccccc1)C(=O)N[C@@H](CC(C)C)C(=O)N[C@@H](Cc1ccc(O)cc1)C(=O)O)[C@H](C)O`, the Activity was over 2%. Regarding `CC[C@H](C)[C@H](NC(=O)[C@H](C)NC(=O)[C@@H](NC(=O)[C@H](Cc1ccccc1)NC(=O)[C@@H](NC(=O)[C@@H](NC(=O)[C@H](CC(N)=O)NC(=O)[C@@H](C)N)[C@@H](C)CC)[C@@H](C)CC)[C@@H](C)CC)C(=O)N[C@H](C(=O)N[C@@H](CO)C(=O)N[C@H](C(=O)N[C@H](C(=O)N[C@@H](CO)C(=O)N[C@@H](CC(C)C)C(=O)N[C@@H](CO)C(=O)N[C@H](C(=O)N[C@@H](CO)C(=O)N[C@@H](CO)C(=O)N[C@@H](Cc1ccccc1)C(=O)N[C@H](C(=O)N[C@@H](Cc1ccc(O)cc1)C(=O)O)[C@@H](C)CC)[C@@H](C)CC)[C@@H](C)CC)[C@@H](C)CC)[C@@H](C)CC`, the Activity was over 2%. Under `CC[C@H](C)[C@H](NC(=O)[C@H](CC(=O)O)NC(=O)[C@H](CCCCN)NC(=O)[C@H](CCC(=O)O)NC(=O)[C@H](CC(=O)O)NC(=O)[C@H](CCC(N)=O)NC(=O)[C@@H]1CCCN1C(=O)[C@H](NC(=O)[C@@H](NC(=O)[C@H](CCCCN)NC(=O)[C@H](CC(N)=O)NC(=O)[C@H](NC(=O)[C@H](CCSC)NC(=O)[C@@H](NC(=O)[C@@H](NC(=O)[C@H](CCC(=O)O)NC(=O)[C@H](CCC(N)=O)NC(=O)[C@@H](N)CC(=O)O)[C@@H](C)CC)[C@@H](C)O)[C@@H](C)CC)[C@H](C)O)[C@@H](C)CC)C(=O)N[C@@H](CC(C)C)C(=O)N[C@@H](Cc1ccccc1)C(=O)N[C@@H](Cc1ccc(O)cc1)C(=O)O` stands over 2%; under `CC[C@H](C)[C@H](NC(=O)[C@H](CC(=O)O)NC(=O)[C@H](CCCCN)NC(=O)[C@H](CCCNC(=N)N)NC(=O)[C@H](Cc1ccccc1)NC(=O)[C@H](CCCNC(=N)N)NC(=O)[C@@H](NC(=O)[C@@H](NC(=O)[C@@H]1CCCN1C(=O)[C@H](CC(C)C)NC(=O)CN)[C@H](C)O)[C@@H](C)CC)C(=O)N[C@@H](CO)C(=O)N[C@H](C(=O)N[C@@H](CCC(=O)O)C(=O)N[C@@H](CC(N)=O)C(=O)N[C@@H](CC(C)C)C(=O)N[C@H](C(=O)N[C@@H](Cc1ccc(O)cc1)C(=O)N[C@@H](CC(C)C)C(=O)N[C@@H](CC(N)=O)C(=O)O)[C@@H](C)O)C(C)C`, over 2%; under `CC[C@H](C)[C@H](NC(=O)[C@H](CC(C)C)NC(=O)[C@H](CS)NC(=O)[C@@H](NC(=O)[C@H](CC(C)C)NC(=O)[C@H](Cc1ccccc1)NC(=O)[C@H](CCC(N)=O)NC(=O)[C@H](CC(C)C)NC(=O)[C@H](CC(C)C)NC(=O)[C@H](CC(C)C)NC(=O)[C@@H](NC(=O)[C@H](Cc1cnc[nH]1)NC(=O)[C@H](CC(C)C)NC(=O)[C@@H](NC(=O)[C@H](Cc1ccccc1)NC(=O)[C@H](Cc1ccccc1)NC(=O)[C@@H]1CCCN1C(=O)[C@@H](NC(=O)[C@H](CCCCN)NC(=O)[C@@H](N)CCSC)[C@@H](C)CC)[C@@H](C)CC)[C@@H](C)CC)[C@@H](C)CC)C(=O)N[C@@H](Cc1ccc(O)cc1)C(=O)O`, over 2%. In the case of `CC[C@H](C)[C@H](NC(=O)[C@H](CC(N)=O)NC(=O)[C@@H](NC(=O)[C@H](CC(N)=O)NC(=O)CNC(=O)[C@H](CC(=O)O)NC(=O)[C@H](CCCCN)NC(=O)[C@@H](NC(=O)[C@@H](NC(=O)[C@@H](NC(=O)[C@@H]1CCCN1C(=O)[C@H](CCC(=O)O)NC(=O)[C@H](CCC(=O)O)NC(=O)[C@H](CC(N)=O)NC(=O)[C@@H](N)CCCCN)C(C)C)[C@@H](C)CC)C(C)C)[C@@H](C)CC)C(=O)N[C@@H](CCCCN)C(=O)N[C@@H](CO)C(=O)N[C@@H](C)C(=O)N[C@@H](CC(C)C)C(=O)N[C@@H](CC(C)C)C(=O)N[C@@H](Cc1ccc(O)cc1)C(=O)O`, the Activity is over 2%. Under `CC[C@H](C)[C@H](NC(=O)[C@H](CCCCN)NC(=O)[C@@H](NC(=O)[C@H](Cc1ccc(O)cc1)NC(=O)CNC(=O)[C@H](CCC(=O)O)NC(=O)[C@H](CC(=O)O)NC(=O)[C@H](CO)NC(=O)[C@H](Cc1ccc(O)cc1)NC(=O)[C@H](CC(C)C)NC(=O)[C@H](CC(N)=O)NC(=O)[C@H](CCSC)NC(=O)[C@@H](NC(=O)[C@H](CCC(C)=O)NC(=O)[C@H](CC(N)=O)NC(=O)[C@H](CCCCN)NC(=O)[C@@H](N)Cc1c[nH]c2ccccc12)C(C)C)[C@@H](C)O)C(=O)N[C@@H](CC(N)=O)C(=O)N[C@H](C(=O)N[C@@H](CC(C)C)C(=O)O)[C@@H](C)O` stands over 2%; under `CC[C@H](C)[C@H](NC(=O)[C@H](CCCCN)NC(=O)[C@H](CCCNC(=N)N)NC(=O)[C@@H]1CCCN1C(=O)[C@@H](NC(=O)[C@@H](NC(=O)[C@H](CCCCN)NC(=O)[C@@H](NC(=O)[C@H](CCCCN)NC(=O)[C@@H](NC(=O)[C@@H](NC(=O)[C@@H](N)Cc1ccc(O)cc1)C(C)C)[C@@H](C)CC)[C@@H](C)CC)[C@@H](C)O)C(C)C)C(=O)N[C@@H](CCC(N)=O)C(=O)N[C@@H](CS)C(=O)N[C@@H](CCC(=O)O)C(=O)N[C@@H](CC(C)C)C(=O)N[C@@H](CC(N)=O)C(=O)N[C@H](C(=O)N[C@@H](CC(N)=O)C(=O)N[C@@H](CC(=O)O)C(=O)O)[C@@H](C)O`, over 2%; under `CC[C@H](C)[C@H](NC(=O)[C@H](CO)NC(=O)[C@H](CCCNC(=N)N)NC(=O)[C@@H](NC(=O)[C@@H](NC(=O)[C@@H](N)CCC(N)=O)[C@@H](C)O)[C@@H](C)CC)C(=O)N[C@@H](C(=O)N[C@@H](CC(C)C)C(=O)N[C@@H](CC(C)C)C(=O)N[C@@H](CS)C(=O)N[C@@H](CO)C(=O)N[C@@H](CC(N)=O)C(=O)N[C@@H](CC(C)C)C(=O)N[C@@H](Cc1cnc[nH]1)C(=O)N[C@@H](CC(=O)O)C(=O)N[C@@H](Cc1c[nH]c2ccccc12)C(=O)N[C@@H](CCCCN)C(=O)N[C@@H](CC(C)C)C(=O)N[C@@H](Cc1ccccc1)C(=O)N[C@@H](CS)C(=O)N[C@@H](Cc1ccc(O)cc1)C(=O)O)[C@@H](C)CC`, over 2%. Under `CC[C@H](C)[C@H](NC(=O)[C@H](Cc1ccc(O)cc1)NC(=O)[C@@H](N)CC(N)=O)C(=O)N[C@@H](CCC(=O)O)C(=O)N[C@@H](CCC(=O)O)C(=O)N1CCC[C@H]1C(=O)N[C@@H](Cc1ccccc1)C(=O)N[C@@H](CO)C(=O)N[C@H](C(=O)N[C@H](C(=O)N[C@@H](Cc1ccccc1)C(=O)N[C@H](C(=O)N[C@H](C(=O)N[C@@H](CC(C)C)C(=O)N[C@@H](CCC(N)=O)C(=O)N[C@H](C(=O)N[C@@H](CCC(N)=O)C(=O)N[C@@H](CCSC)C(=O)N[C@@H](CC(N)=O)C(=O)O)[C@@H](C)O)[C@@H](C)CC)[C@@H](C)O)[C@@H](C)O)[C@@H](C)O` stands over 2%; under `CC[C@H](NC(=O)[C@H](CC(C)C)NC(=O)[C@H](CCCCN)NC(=O)[C@H](CC(N)=O)NC(=O)[C@H](CC(N)=O)NC(=O)[C@H](Cc1ccc(O)cc1)NC(=O)[C@@H](NC(=O)[C@H](Cc1ccc(O)cc1)NC(=O)[C@H](CCCCN)NC(=O)[C@H](Cc1ccc(O)cc1)NC(=O)[C@@H](NC(=O)[C@H](Cc1ccc(O)cc1)NC(=O)[C@@H](NC(=O)[C@H](Cc1ccc(O)cc1)NC(=O)[C@@H](NC(=O)[C@H](CCCCN)NC(=O)[C@H](CC(N)=O)NC(=O)[C@@H](NC(=O)[C@@H](N)[C@@H](C)O)C(C)C)[C@@H](C)CC)[C@@H](C)O)[C@@H](C)O)[C@@H](C)CC)C(=O)N[C@@H](C)C(=O)O`, over 2%.
